Assay results from PubChem BioAssay (NCI).
“And” between values parts separate entries of the source, which are not always exact repeats. Equal values may be shown once.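 A five-concentration, 48-hour dose response in 96-well plates underlies each endpoint, interpolated linearly between surrounding concentrations. The concentration for 50% growth inhibition is given as GI50. TGI: total growth inhibition.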

Key:
Experiment in all cases: NCI-60 cell line screen, 48 h
HOP-62 NSCLC = tested on: HOP-62 NSCLC
MOLT-4 leukemia = tested on: MOLT-4 leukemia
OVCAR-5 ovarian = tested on: OVCAR-5 ovarian
PC-3 prostate = tested on: PC-3 prostate
SK-MEL-2 melanoma = tested on: SK-MEL-2 melanoma
SK-MEL-28 melanoma = tested on: SK-MEL-28 melanoma
SK-OV-3 ovarian = tested on: SK-OV-3 ovarian
SN12C renal = tested on: SN12C renal
SW-620 colon = tested on: SW-620 colon
TK-10 renal = tested on: TK-10 renal

SMILES	GI50 (HOP-62 NSCLC) [µM]	TGI (HOP-62 NSCLC)	GI50 (MOLT-4 leukemia) [µM]	TGI (MOLT-4 leukemia)	GI50 (OVCAR-5 ovarian)	TGI (OVCAR-5 ovarian)	GI50 (PC-3 prostate)	TGI (PC-3 prostate)	GI50 (SK-MEL-2 melanoma) [µM]	TGI (SK-MEL-2 melanoma)	GI50 (SK-MEL-28 melanoma) [µM]	TGI (SK-MEL-28 melanoma)	GI50 (SK-OV-3 ovarian) [µM]	TGI (SK-OV-3 ovarian)	GI50 (SN12C renal) [µM]	TGI (SN12C renal)	GI50 (SW-620 colon)	TGI (SW-620 colon)	GI50 (TK-10 renal) [µM]	TGI (TK-10 renal)
COc1cc2c(cc1OCCCOc1cc3c(cc1OC)C(=O)N1C[C@H](F)C[C@H]1C=N3)N=C[C@@H]1C[C@@H](F)CN1C2=O	6.2	19.3 µM	1.33	4.3 µM	13.2 µM	25.9 µM	12.6 µM	37.3 µM	2.04	5.71 µM	15.7	29.9 µM	17.9	32.9 µM	5.6	19.2 µM	4.2 µM	20 µM	15	28.2 µM
CO[C@@H]1/C=C\C=C(/C)C(=O)NC2=CC(=O)C(NCCN(C)C)=C(C[C@@H](C)C[C@@H](OC)[C@@H](O)[C@H](C)/C=C(\C)[C@H]1OC(N)=O)C2=O	0.0859	17 µM and 19.1 µM	0.0444	1.02 µM and 8.39 µM	0.406 µM and 0.11 µM	9.23 µM and 7.52 µM	< 0.01 µM and 0.0264 µM	33.6 µM and 17.8 µM	–	21.3 µM and 12.3 µM	–	> 100 µM and 32.4 µM	–	> 37.4 µM and 6.86 µM	0.0135	2.78 µM and 3.81 µM	< 0.01 µM and 0.0487 µM	20.6 µM	–	24 µM and 34.7 µM
COc1ccc(CN(C)c2ccc(CO)c(Cl)c2)cc1	7.58	> 100 µM	25.8	> 86.7 µM	0.439 µM	2.9 µM	20.7 µM	> 100 µM	8.37	38.7 µM	24.6	> 100 µM	18.8	88.8 µM	21.5	> 100 µM	4.53 µM	> 100 µM	0.179	0.793 µM
O=C1Nc2ccc(C(=O)c3ccco3)cc2/C1=C/c1cc(Cl)c(O)c(Cl)c1	7.45	> 22.1 µM	9.36	24.9 µM	8.35 µM	> 20 µM	6.52 µM	> 24.1 µM	2.86	7.21 µM	4.17	> 18.1 µM	4.51	16.1 µM	6.53	> 25 µM	4.8 µM	> 23.8 µM	6.53	> 23.9 µM
O=c1ccn(C2OC(CO)C(O)C2F)c(=O)[nH]1 (stereo not given)	> 1000	> 1000 µM	> 1000	> 1000 µM	> 1000 µM	> 1000 µM	> 1000 µM	> 1000 µM	> 1000	> 1000 µM	> 1000	> 1000 µM	> 1000	> 1000 µM	> 1000	> 1000 µM	> 1000 µM	> 1000 µM	> 1000	> 1000 µM
CC(=O)[O-].CC(=O)[O-].[Pt+2].c1cscn1.c1cscn1	> 100	> 100 µM	36.1	> 100 µM	> 100 µM	> 100 µM	> 100 µM	> 100 µM	> 100	> 100 µM	> 100	> 100 µM	> 100	> 100 µM	> 100	> 100 µM	47.5 µM	> 100 µM	> 100	> 100 µM
Cn1c([N+](=O)[O-])cnc1/C=C1\Oc2ccccc2C1=O	1.07	4.42 µM	0.159	0.758 µM	1.99 µM	6.63 µM	1.46 µM	> 22.7 µM	0.255	0.663 µM	0.43	3.36 µM	1.62	6.34 µM	0.593	2.87 µM	0.15 µM	2.02 µM	1.29	7.77 µM
COc1cc(OC)cc(C2CC(=O)Nc3c2c(C)nn3-c2nc3ccccc3[nH]2)c1 (stereo not given)	2.65	6.62 µM	0.0728	0.434 µM	4.15 µM	> 100 µM	3.09 µM	41.7 µM	2.42	5.88 µM	3.64	70 µM	2.41	5.49 µM	3.46	> 100 µM	3.31 µM	12.9 µM	3.04	45.5 µM
CCN(CC)CC(O)CNc1ccc(NCC2CO2)c2c1C(=O)c1ccccc1C2=O (stereo not given)	0.297	4.02 µM	0.00515	0.0582 µM and 0.0292 µM	–	7.76 µM	0.395 µM	3.06 µM	–	0.785 µM and 0.839 µM	0.631	3.5 µM	–	9.64 µM	0.177	0.899 µM	0.0713 µM	0.797 µM	–	7.15 µM
CCN(CC)CCCC(C)Nc1c2ccc(Cl)cc2nc2ccc(OC)cc12 (stereo not given)	1.61	3.98 µM and 8.04 µM	0.863	4.34 µM and 2.52 µM	2.34 µM	6.45 µM and 4.75 µM	2.24 µM	9.19 µM and 5.73 µM	–	3.17 µM	2.27	4.4 µM and 3.1 µM	2.69	10.3 µM and 12.6 µM	1.59	7.16 µM and 9.28 µM	1.18 µM	8.55 µM and 4.35 µM	–	11.8 µM and 13 µM
CN[C@@H](C)C(=O)N[C@H](C(=O)N1CCC[C@H]1C(=O)N[C@H]1c2ccccc2C[C@H]1OCC#CC#CCO[C@@H]1Cc2ccccc2[C@@H]1NC(=O)[C@@H]1CCCN1C(=O)[C@@H](NC(=O)[C@H](C)NC)C1CCCCC1)C1CCCCC1	0.422	16 µM	1.92	4.57 µM	18.1 µM	34.6 µM	6.04 µM	18.7 µM	1.18	3.02 µM	1.8	3.55 µM	< 0.01	< 0.01 µM	7.95	21.6 µM	3.6 µM	11.5 µM	19.7	35.6 µM
CCN1CCN(C(=O)[C@]23CC[C@@H](C)[C@H](C)[C@@H]2C2=CC[C@@H]4[C@@]5(C)C/C(=C/c6ccncc6)C(=O)C(C)(C)[C@@H]5CC[C@@]4(C)[C@]2(C)CC3)CC1	2.37	5.75 µM	1.78	4.57 µM	1.46 µM	2.77 µM	1.34 µM	3.01 µM	1.91	3.84 µM	1.65	3.03 µM	1.83	3.67 µM	1.63	2.99 µM	1.71 µM	3.7 µM	1.73	3.31 µM
